ChEMBL document CHEMBL1201862, “PubChem BioAssay data set” (2004)
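These data come from cells grown in 96-well plates and exposed to compound for 48 hours at five concentrations. Here, GI50 denotes the concentration required for 50% inhibition of growth.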 The source made the active and inactive calls. Cut-off read from the data, not from the text of the source: active = GI50 up to about 1.1 µM and inactive = higher.

How the values were obtained:
Experiment in all cases: NCI anticancer screen, dose series, 48 h
786-0 = tested on: 786-0
A498 = tested on: A498
A549 = tested on: A549
ACHN = tested on: ACHN
CAKI-1 = tested on: CAKI-1
CCRF-CEM = tested on: CCRF-CEM
COLO 205 = tested on: COLO 205
DLD-1 = tested on: DLD-1
DMS-114 = tested on: DMS-114
DMS-273 = tested on: DMS-273
HCT-116 = tested on: HCT-116
HCT-15 = tested on: HCT-15
HOP-18 = tested on: HOP-18
HOP-92 = tested on: HOP-92
HT-29 = tested on: HT-29
IGROV-1 = tested on: IGROV-1
K562 = tested on: K562
KM-20L2 = tested on: KM-20L2
KM12 = tested on: KM12
LOX IMVI = tested on: LOX IMVI
LXFL 529 = tested on: LXFL 529
M14 = tested on: M14
MOLT-4 = tested on: MOLT-4
Malme-3M = tested on: Malme-3M
NCI-H23 = tested on: NCI-H23
NCI-H460 = tested on: NCI-H460
NCI-H522 = tested on: NCI-H522
OVCAR-3 = tested on: OVCAR-3
OVCAR-4 = tested on: OVCAR-4
OVCAR-5 = tested on: OVCAR-5
OVCAR-8 = tested on: OVCAR-8
RPMI-8226 = tested on: RPMI-8226
RXF 393 = tested on: RXF 393
SF-268 = tested on: SF-268
SF-539 = tested on: SF-539
SK-MEL-28 = tested on: SK-MEL-28
SK-MEL-2 = tested on: SK-MEL-2
SK-MEL-5 = tested on: SK-MEL-5
SK-OV-3 = tested on: SK-OV-3
SN12C = tested on: SN12C
SNB-19 = tested on: SNB-19
SNB-75 = tested on: SNB-75
SNB-78 = tested on: SNB-78
SW-620 = tested on: SW-620
TK-10 = tested on: TK-10
U-251 = tested on: U-251
UACC-257 = tested on: UACC-257
UACC-62 = tested on: UACC-62
UO-31 = tested on: UO-31
XF498 = tested on: XF498
BT-549 = tested on: BT-549
DU-145 = tested on: DU-145
EKVX = tested on: EKVX
HCC 2998 = tested on: HCC 2998
HL-60 = tested on: HL-60
HOP-62 = tested on: HOP-62
Hs-578T = tested on: Hs-578T
M19-MEL = tested on: M19-MEL
MCF7 = tested on: MCF7
MDA-MB-231 = tested on: MDA-MB-231
MDA-MB-435 = tested on: MDA-MB-435
MDA-N = tested on: MDA-N
NCI-H226 = tested on: NCI-H226
NCI/ADR-RES = tested on: NCI/ADR-RES
PC-3 = tested on: PC-3
SF-295 = tested on: SF-295
SR = tested on: SR
T47D = tested on: T47D

Q: What does the source list for `COc1ccc(C(=O)C(C(=O)C(=O)Nc2nccs2)c2ccc(OC)cc2)cc1` (stereo unspecified)?
A: GI50 (786-0): > 100 µM (inactive); GI50 (A498): > 100 µM (inactive); GI50 (A549): > 100 µM (inactive); GI50 (ACHN): > 100 µM (inactive); GI50 (CAKI-1): > 100 µM (inactive); GI50 (CCRF-CEM): > 100 µM (inactive); GI50 (COLO 205): > 100 µM (inactive); GI50 (DLD-1): > 100 µM (inactive); GI50 (DMS-114): > 100 µM (inactive); GI50 (DMS-273): > 100 µM (inactive); GI50 (HCT-116): > 100 µM (inactive); GI50 (HCT-15): > 100 µM; GI50 (HOP-18): > 100 µM (inactive); GI50 (HOP-92): > 100 µM (inactive); GI50 (HT-29): > 100 µM (inactive); GI50 (IGROV-1): > 100 µM (inactive); GI50 (K562): > 100 µM (inactive); GI50 (KM-20L2): > 100 µM (inactive); GI50 (KM12): > 100 µM (inactive); GI50 (LOX IMVI): > 100 µM (inactive); GI50 (LXFL 529): > 100 µM (inactive); GI50 (M14): > 100 µM (inactive); GI50 (MOLT-4): > 100 µM (inactive); GI50 (Malme-3M): > 100 µM (inactive); GI50 (NCI-H23): > 100 µM (inactive); GI50 (NCI-H460): > 100 µM (inactive); GI50 (NCI-H522): 92 µM (inactive); GI50 (OVCAR-3): > 100 µM (inactive); GI50 (OVCAR-4): > 10 µM (inactive); GI50 (OVCAR-5): > 100 µM (inactive); GI50 (OVCAR-8): > 100 µM (inactive); GI50 (RPMI-8226): > 100 µM (inactive); GI50 (RXF 393): 80.9 µM (inactive); GI50 (SF-268): > 100 µM (inactive); GI50 (SF-539): > 100 µM (inactive); GI50 (SK-MEL-28): > 100 µM (inactive); GI50 (SK-MEL-2): > 100 µM (inactive); GI50 (SK-MEL-5): > 100 µM (inactive); GI50 (SK-OV-3): > 100 µM (inactive); GI50 (SN12C): > 100 µM (inactive); GI50 (SNB-19): > 100 µM (inactive); GI50 (SNB-75): 73.6 µM (inactive); GI50 (SNB-78): > 100 µM (inactive); GI50 (SW-620): > 100 µM (inactive); GI50 (TK-10): > 100 µM (inactive); GI50 (U-251): > 100 µM (inactive); GI50 (UACC-257): > 100 µM (inactive); GI50 (UACC-62): > 100 µM (inactive); GI50 (UO-31): > 100 µM (inactive); GI50 (XF498): > 100 µM (inactive)

Q: With `Cn1nnc2c(C(N)=O)ncn2c1=O` [TEMOZOLOMIDE] as the compound, how does the GI50 (786-0) read?
A: > 100 µM (inactive)

Q: What about the GI50 (A549) of the same compound?
A: > 100 µM (inactive)

Q: And the GI50 (ACHN)?
A: > 100 µM (inactive)

Q: What about the GI50 (BT-549) of the same compound?
A: > 100 µM (inactive)

Q: What about the GI50 (CAKI-1) of the same compound?
A: > 100 µM (inactive)

Q: And the GI50 (CCRF-CEM)?
A: 78.3 µM (inactive)

Q: What about the GI50 (COLO 205) of the same compound?
A: > 100 µM (inactive)

Q: And the GI50 (DLD-1)?
A: > 100 µM (inactive)

Q: And the GI50 (DMS-114)?
A: > 100 µM (inactive)

Q: What about the GI50 (DU-145) of the same compound?
A: > 100 µM (inactive)

Q: And the GI50 (EKVX)?
A: > 100 µM (inactive)

Q: And the GI50 (HCC 2998)?
A: > 100 µM (inactive)

Q: And the GI50 (HCT-116)?
A: > 100 µM (inactive)

Q: What about the GI50 (HCT-15) of the same compound?
A: > 100 µM

Q: And the GI50 (HL-60)?
A: 85.5 µM (inactive)

Q: And the GI50 (HOP-18)?
A: > 100 µM (inactive)

Q: And the GI50 (HOP-62)?
A: > 100 µM (inactive)

Q: And the GI50 (HOP-92)?
A: > 100 µM (inactive)

Q: What about the GI50 (HT-29) of the same compound?
A: > 100 µM (inactive)

Q: And the GI50 (Hs-578T)?
A: > 100 µM (inactive)

Q: And the GI50 (IGROV-1)?
A: > 100 µM (inactive)

Q: What about the GI50 (K562) of the same compound?
A: 75.9 µM (inactive)

Q: And the GI50 (KM-20L2)?
A: > 100 µM (inactive)

Q: And the GI50 (KM12)?
A: > 100 µM (inactive)

Q: What about the GI50 (LOX IMVI) of the same compound?
A: 82 µM (inactive)

Q: And the GI50 (LXFL 529)?
A: > 100 µM (inactive)

Q: And the GI50 (M14)?
A: > 100 µM (inactive)

Q: What about the GI50 (M19-MEL) of the same compound?
A: > 100 µM (inactive)

Q: What about the GI50 (MCF7) of the same compound?
A: > 100 µM (inactive)

Q: And the GI50 (MDA-MB-231)?
A: > 100 µM (inactive)

Q: And the GI50 (MDA-MB-435)?
A: > 100 µM (inactive)

Q: What about the GI50 (MDA-N) of the same compound?
A: > 100 µM (inactive)

Q: What about the GI50 (MOLT-4) of the same compound?
A: 83.6 µM (inactive)

Q: What about the GI50 (Malme-3M) of the same compound?
A: > 100 µM (inactive)

Q: And the GI50 (NCI-H226)?
A: > 100 µM (inactive)

Q: And the GI50 (NCI-H23)?
A: > 100 µM (inactive)

Q: And the GI50 (NCI-H460)?
A: > 100 µM (inactive)

Q: What about the GI50 (NCI-H522) of the same compound?
A: > 100 µM (inactive)

Q: What about the GI50 (NCI/ADR-RES) of the same compound?
A: > 100 µM (inactive)

Q: What about the GI50 (OVCAR-3) of the same compound?
A: > 100 µM (inactive)

Q: What about the GI50 (OVCAR-4) of the same compound?
A: > 100 µM (inactive)

Q: What about the GI50 (OVCAR-5) of the same compound?
A: > 100 µM (inactive)

Q: What about the GI50 (OVCAR-8) of the same compound?
A: > 100 µM (inactive)

Q: And the GI50 (PC-3)?
A: > 100 µM (inactive)

Q: What about the GI50 (RPMI-8226) of the same compound?
A: > 100 µM (inactive)

Q: What about the GI50 (RXF 393) of the same compound?
A: > 100 µM (inactive)

Q: What about the GI50 (SF-268) of the same compound?
A: > 100 µM (inactive)

Q: And the GI50 (SF-295)?
A: > 100 µM (inactive)

Q: And the GI50 (SF-539)?
A: > 100 µM (inactive)

Q: What about the GI50 (SK-MEL-28) of the same compound?
A: > 100 µM (inactive)

Q: What about the GI50 (SK-MEL-2) of the same compound?
A: > 100 µM (inactive)

Q: What about the GI50 (SK-MEL-5) of the same compound?
A: > 100 µM (inactive)

Q: And the GI50 (SK-OV-3)?
A: 58.7 µM (inactive)

Q: And the GI50 (SN12C)?
A: > 100 µM (inactive)

Q: What about the GI50 (SNB-19) of the same compound?
A: > 100 µM (inactive)

Q: And the GI50 (SNB-75)?
A: 71 µM (inactive)

Q: And the GI50 (SNB-78)?
A: > 100 µM (inactive)

Q: What about the GI50 (SR) of the same compound?
A: > 100 µM (inactive)

Q: What about the GI50 (SW-620) of the same compound?
A: > 100 µM (inactive)

Q: And the GI50 (T47D)?
A: > 100 µM (inactive)

Q: And the GI50 (TK-10)?
A: > 100 µM (inactive)

Q: And the GI50 (U-251)?
A: > 100 µM (inactive)

Q: What about the GI50 (UACC-257) of the same compound?
A: > 100 µM (inactive)

Q: And the GI50 (UACC-62)?
A: > 100 µM (inactive)

Q: And the GI50 (UO-31)?
A: > 74 µM (inactive)

Q: And the GI50 (XF498)?
A: > 100 µM (inactive)
